Test results reported in patent US6403831B1, “Substituted benzylidene indenyl formamides, acetamides and propionamides” (Cell Pathways, Inc., priority 1996, dated 2002).

Molecular target: T1, COX I (Ovis aries, UniProt P05979)
T1 construct: The COX was purified form ram seminal vesicles; from tissue; host or cells: ram seminal vesicles
T1 sequence (P05979 25-600): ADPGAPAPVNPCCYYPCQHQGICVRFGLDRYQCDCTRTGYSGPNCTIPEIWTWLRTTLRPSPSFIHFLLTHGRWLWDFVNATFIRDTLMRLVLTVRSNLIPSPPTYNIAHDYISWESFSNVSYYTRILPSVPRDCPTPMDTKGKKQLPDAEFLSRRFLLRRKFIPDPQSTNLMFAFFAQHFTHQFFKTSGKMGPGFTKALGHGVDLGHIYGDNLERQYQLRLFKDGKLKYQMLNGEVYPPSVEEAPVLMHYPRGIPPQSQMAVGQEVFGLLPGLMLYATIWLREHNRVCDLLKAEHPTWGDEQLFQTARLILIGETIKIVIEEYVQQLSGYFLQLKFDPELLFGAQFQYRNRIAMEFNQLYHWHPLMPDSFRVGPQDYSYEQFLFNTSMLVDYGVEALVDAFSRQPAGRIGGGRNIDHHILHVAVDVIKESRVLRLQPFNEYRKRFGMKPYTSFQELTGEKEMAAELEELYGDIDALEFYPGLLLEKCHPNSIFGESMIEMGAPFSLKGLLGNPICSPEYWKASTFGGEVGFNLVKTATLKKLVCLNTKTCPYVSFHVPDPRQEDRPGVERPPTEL
Experiment: Cyclooxygenase (COX) inhibition, purified COX
Format: biochemical
Details: 100 μM test compound; purified COX from ram seminal vesicles, arachidonic acid 100 μM
Description: Compounds of this invention, as well as a positive control, sulindac sulfide were to determine whether they inhibited the production of cyclooxygenase (see Table 5 below).
COX catalyzes the formation of prostaglandins and thromboxane by the oxidative metabolism of arachidonic acid. The compounds of this invention were evaluated for inhibitory effects on purified COX. The COX was purified form ram seminal vesicles, as described by Boopathy, R. and Balasubramanian, J. 239:371-377, 1988. COX activity was assayed as described by Evans, A. T., et al., “Actions of cannabis constituents on enzymes of arachidonate metabolism anti-flammatory potential,” Biochem. Pharmacol., 36:2035-2037, 1987. Briefly, purified COX was incubated with arachidonic acid (100 μM) for 2.0 min at 37° C. in the presence or absence of test compounds. The assay was terminated buy the addition of TCA, and COX activity was determined by absorbance at 530 nm.

COX I % Inhibition (100 μM)	Compound
<25%	COc1cc(/C=C2/C(C)=C(CC(=O)NCc3cccc(I)c3)c3cc(F)ccc32)cc(OC)c1OC [Example 2, (Z)-5-fluoro-2-methyl-1-(3,4,5-trimethoxybenzylidene)-3-(N-3-iodobenzyl)-indenylacetamide]
<35%	COc1cc(/C=C2/C(C)=C(CC(=O)NCc3cccc(Cl)c3)c3cc(F)ccc32)cc(OC)c1OC [Example 3]
<25%	COc1cc(/C=C2/C(C)=C(CC(=O)NCc3ccc(Cl)c(Cl)c3)c3cc(F)ccc32)cc(OC)c1OC [Example 5, (Z)-5-fluoro-2-methyl-1-(3,4,5-trimethoxybenzylidene)-3-(N-3,4-dichlorobenzyl)-indenylacetamide]
<25%	COc1cc(/C=C2/C(C)=C(CC(=O)NCc3cccc(F)c3)c3cc(F)ccc32)cc(OC)c1OC [Example 7, (Z)-5-fluoro-2-methyl-1-(3,4,5-trimethoxybenzylidene)-3-(N-3-fluorobenzyl)-indenylacetamide]
<25%	COc1cc(/C=C2/C(C)=C(CC(=O)NCc3ccc(F)c(F)c3)c3cc(F)ccc32)cc(OC)c1OC [Example 9, (Z)-5-fluoro-2-methyl-1-(3,4,5-trimethoxybenzylidene)-3-(N-3,4-difluorobenzyl)-indenylacetamide]
<25%	COc1cc(/C=C2/C(C)=C(CC(=O)NCc3c(F)cccc3F)c3cc(F)ccc32)cc(OC)c1OC [Example 10, (Z)-5-fluoro-2-methyl-1-(3,4,5-trimethoxybenzylidene)-3-(N-2,6-difluorobenzyl)-indenylacetamide]
<25%	COc1cc(/C=C2/C(C)=C(CC(=O)NCc3cc(F)cc(C(F)(F)F)c3)c3cc(F)ccc32)cc(OC)c1OC [Example 11, (Z)-5-fluoro-2-methyl-1-(3,4,5-trimethoxybenzylidene)-3-(N-3-fluoro-5-(trifluoromethyl)-benzyl)-indenylacetamide]
<25%	COc1ccc(CNC(=O)CC2=C(C)/C(=C/c3cc(OC)c(OC)c(OC)c3)c3ccc(F)cc32)cc1 [Example 14, (Z)-5-fluoro-2-methyl-1-(3,4,5-trimethoxybenzylidene)-3-(N-4-methoxybenzyl)-indenylacetamide]
<25%	COc1cc(CNC(=O)CC2=C(C)/C(=C/c3cc(OC)c(OC)c(OC)c3)c3ccc(F)cc32)cc(OC)c1 [Example 16, (Z)-5-fluoro-2-methyl-1-(3,4,5-trimethoxybenzylidene)-3-(N-3,5-dimethoxybenzyl)-indenylacetamide]
<25%	COc1ccc(CNC(=O)CC2=C(C)/C(=C/c3cc(OC)c(OC)c(OC)c3)c3ccc(F)cc32)cc1OC [Example 17, (Z)-5-fluoro-2-methyl-1-(3,4,5-trimethoxybenzylidene)-3-(N-3,4-dimethoxybenzyl)-indenylacetamide]
<25%	COc1cccc(CNC(=O)CC2=C(C)/C(=C/c3cc(OC)c(OC)c(OC)c3)c3ccc(F)cc32)c1OC [Example 18, (Z)-5 fluoro-2-methyl-1-(3,4,5-trimethoxybenzylidene)-3-(N-2,3-dimethoxybenzyl)-indenylacetamide]
36.5%	COc1cc(/C=C2/C(C)=C(CC(=O)NCc3ccc(S(N)(=O)=O)cc3)c3cc(F)ccc32)cc(OC)c1OC [Example 20, (Z)-5-fluoro-2-methyl-1-(3,4,5-trimethoxybenzylidene)-3-(N-4-sulfonamidobenzyl)-indenylacetamide]
36.5%	COc1cc(/C=C2/C(C)=C(CC(=O)NCc3ccc(N(C)C)cc3)c3cc(F)ccc32)cc(OC)c1OC [Example 21, (Z)-5-fluoro-2-methyl-1-(3,4,5-trimethoxybenzylidene)-3-(N-4-(dimethylamino)-benzyl)-indenylacetamide]

Compound	COX I % Inhibition (100 μM)
COc1cc(/C=C2/C(C)=C(CC(=O)NCc3ccc(F)cc3F)c3cc(F)ccc32)cc(OC)c1OC [Example 6, (Z)-5-fluoro-2-methyl-1-(3,4,5-trimethoxybenzylidene)-3-(N-2,4-difluorobenzyl)-indenylacetamide]	<25%
